Laboratory results: the supplement of paper PMC10307832

Experiments:
Experiment in all cases: relative viability (nuclei count vs DMSO), 5 days (fraction); higher = more cells survive
[1] = compound: C/C(=N\NC(=S)N1CCC1)/C2=CC=CC=N2 + C[C@@H](Oc1cc(-c2cnn(C3CCNCC3)c2)cnc1N)c1c(Cl)ccc(F)c1Cl [Crizotinib] (partner 1 µM)
Method in brief: (§1)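 After 5 days of treatment, lung cancer cells in 1536-well plates were fixed and stained in a single step (final 0.05% Triton X-100, 1% formaldehyde, 1 ug/ml Hoechst) and their nuclei counted on 4× images. Treatment had been applied by pin tool the day after seeding as one drug alone or as a fixed anchor-drug dose with five library-drug doses (not always all listed) in √10 steps. Relative viability is the nuclei count of treated wells divided by that of vehicle wells, and values are medians of duplicate plates.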

[2] = compound: C/C(=N\NC(=S)N1CCC1)/C2=CC=CC=N2 + N=C(N)NC(=N)NCCc1ccccc1 [Phenformin] (partner 250 µM)
Method in brief: as §1

[3] = compound: C/C(=N\NC(=S)N1CCC1)/C2=CC=CC=N2 + CC1(C)CCC(c2ccc(Cl)cc2)=C(CN2CCN(c3ccc(C(=O)NS(=O)(=O)c4ccc(N[C@H](CCN5CCOCC5)CSc5ccccc5)c(S(=O)(=O)C(F)(F)F)c4)cc3)CC2)C1 [Navitoclax] (partner 0.5 µM)
Method in brief: as §1

[4] = compound: C/C(=N\NC(=S)N1CCC1)/C2=CC=CC=N2 + Nc1ncn([C@H]2C[C@H](O)[C@@H](CO)O2)c(=O)n1 [Decitabine] (partner 2 µM)
Method in brief: as §1

Cell Line	relative viability ([1]; first compound 0.05 µM)	relative viability ([1]; first compound 0.1581 µM)	relative viability ([1]; first compound 0.5 µM)	relative viability ([1]; first compound 1.581 µM)	relative viability ([1]; first compound 5 µM)	relative viability ([2]; first compound 0.05 µM)	relative viability ([2]; first compound 0.1581 µM)	relative viability ([2]; first compound 0.5 µM)	relative viability ([2]; first compound 1.581 µM)	relative viability ([2]; first compound 5 µM)	relative viability ([3]; first compound 0.05 µM)	relative viability ([3]; first compound 0.1581 µM)	relative viability ([3]; first compound 0.5 µM)	relative viability ([3]; first compound 1.581 µM)	relative viability ([3]; first compound 5 µM)	relative viability ([4]; first compound 0.05 µM)	relative viability ([4]; first compound 0.1581 µM)	relative viability ([4]; first compound 0.5 µM)	relative viability ([4]; first compound 1.581 µM)	relative viability ([4]; first compound 5 µM)
201T	0.773	0.983	0.485	0.477	0.321	0.362	0.355	0.343	0.311	0.247	0.891	1.18	0.708	0.516	0.453	0.553	0.802	0.348	0.29	0.28
A549	0.0427	0.0518	0.0568	0.044	0.0637	0.0324	0.034	0.0226	0.0286	0.0232	0.0538	0.0583	0.05	0.0608	0.0344	0.0459	0.0345	0.0375	0.0441	0.0197
A-427	0.267	0.445	0.0997	0.0835	0.129	0.13	0.142	0.134	0.121	0.138	0.182	0.664	0.141	0.125	0.133	0.182	0.214	0.194	0.171	0.17
ABC-1	0.23	0.189	0.2	0.172	0.142	0.196	0.203	0.222	0.202	0.14	–	–	–	–	–	0.343	0.373	0.385	0.381	0.287
BEN	0.193	0.182	0.244	0.177	0.169	0.155	0.16	0.178	0.232	0.201	0.0467	0.0428	0.0598	0.115	0.114	0.253	0.338	0.318	0.266	0.359
CAL-12T	0.106	0.0871	0.12	0.103	0.0896	0.171	0.15	0.136	0.112	0.101	0.168	0.139	0.171	0.144	0.118	–	–	–	–	–
COR-L23	0.11	0.119	0.12	0.0692	0.0727	0.104	0.102	0.104	0.0877	0.0862	0.108	0.111	0.0885	0.077	0.0905	0.156	0.149	0.161	0.106	0.0995
COR-L 105	0.231	0.252	0.224	0.205	0.256	0.198	0.299	0.29	0.196	0.214	0.288	0.316	0.26	0.236	0.317	0.31	0.413	0.327	0.306	0.313
Calu-6	0.117	0.136	0.128	0.109	0.102	–	–	–	–	–	0.106	0.122	0.123	0.141	0.126	–	–	–	–	–
ChaGo-K-1	0.34	0.339	0.258	0.312	0.279	0.176	0.194	0.188	0.152	0.174	0.293	0.47	0.27	0.218	0.374	0.159	0.321	0.147	0.174	0.178
EBC-1	0.173	0.187	0.163	0.162	0.128	–	–	–	–	–	0.135	0.146	0.136	0.134	0.174	–	–	–	–	–
EKVX	0.142	0.159	0.121	0.137	0.159	0.14	0.132	0.167	0.161	0.23	0.127	0.131	0.119	0.132	0.137	0.15	0.138	0.13	0.138	0.16
EMC-BAC-2	0.365	0.336	0.16	0.153	0.142	0.156	0.233	0.214	0.211	0.212	0.25	0.645	0.162	0.21	0.168	0.261	0.268	0.228	0.219	0.212
EPLC-272H	0.0969	0.187	0.121	0.126	0.171	0.112	0.13	0.084	0.0614	0.122	0.108	0.356	0.138	0.125	0.151	0.123	0.111	0.109	0.062	0.101
H3255	0.289	0.309	0.288	0.222	0.189	0.318	0.333	0.317	0.301	0.346	0.103	0.123	0.101	0.094	0.148	0.211	0.231	0.24	0.209	0.228
HARA	0.361	0.227	0.152	0.115	0.0965	0.0726	0.0701	0.0872	0.047	0.0649	0.361	0.165	0.212	0.124	0.11	0.229	0.168	0.153	0.242	0.164
HCC-15	0.21	0.412	0.0685	0.073	0.0642	0.0651	0.134	0.144	0.0712	0.0989	0.198	0.392	0.0695	0.092	0.0784	0.0738	0.16	0.117	0.0902	0.0924

Cell Line	relative viability ([1]; first compound 0.05 µM)	relative viability ([1]; first compound 0.1581 µM)	relative viability ([1]; first compound 0.5 µM)	relative viability ([1]; first compound 1.581 µM)	relative viability ([1]; first compound 5 µM)	relative viability ([2]; first compound 0.05 µM)	relative viability ([2]; first compound 0.1581 µM)	relative viability ([2]; first compound 0.5 µM)	relative viability ([2]; first compound 1.581 µM)	relative viability ([2]; first compound 5 µM)	relative viability ([3]; first compound 0.05 µM)	relative viability ([3]; first compound 0.1581 µM)	relative viability ([3]; first compound 0.5 µM)	relative viability ([3]; first compound 1.581 µM)	relative viability ([3]; first compound 5 µM)	relative viability ([4]; first compound 0.05 µM)	relative viability ([4]; first compound 0.1581 µM)	relative viability ([4]; first compound 0.5 µM)	relative viability ([4]; first compound 1.581 µM)	relative viability ([4]; first compound 5 µM)
HCC-44	0.783	0.208	0.186	0.209	0.229	0.0955	0.14	0.0915	0.153	0.188	0.782	0.311	0.194	0.222	0.258	0.559	0.544	0.52	0.551	0.428
HCC-78	0.338	0.251	0.237	0.142	0.167	0.279	0.367	0.314	0.247	0.213	0.492	0.245	0.218	0.189	0.12	0.453	0.413	0.407	0.244	0.22
IA-LM	0.0891	0.0621	0.0599	0.0518	0.0471	–	–	–	–	–	0.0776	0.062	0.0799	0.0503	0.0417	–	–	–	–	–
LCLC-103H	0.838	0.917	0.321	0.335	0.3	0.17	0.172	0.21	0.129	0.187	–	–	–	–	–	0.346	0.684	0.329	0.342	0.291
NCI-H358	0.13	0.157	0.14	0.102	0.144	0.0917	0.112	0.101	0.0719	0.107	–	–	–	–	–	0.114	0.12	0.0978	0.0977	0.0971
NCI-H522	–	–	–	–	–	–	0.27	0.398	–	0.503	–	–	–	–	–	0.402	0.456	0.333	0.345	0.385
NCI-H650	0.187	0.195	0.221	0.146	0.171	0.23	0.277	0.208	0.247	0.189	–	–	–	–	–	0.169	0.192	0.187	0.186	0.157
NCI-H661	0.361	0.322	0.263	0.349	0.288	0.262	0.269	0.254	0.211	0.231	–	–	–	–	–	0.274	0.26	0.218	0.236	0.232
NCI-H1299	0.16	0.16	0.191	0.19	0.102	–	–	–	–	–	0.0935	0.128	0.17	0.178	0.124	–	–	–	–	–
NCI-H1395	–	–	–	–	–	0.279	0.349	0.364	0.307	0.389	0.4	0.346	0.365	0.338	0.352	0.331	0.36	0.357	0.354	0.377
NCI-H1563	0.604	0.557	0.526	0.553	0.527	0.374	0.472	0.491	0.506	0.611	–	–	–	–	–	–	–	–	–	–
NCI-H1648	–	–	–	–	–	–	–	–	–	–	–	–	–	–	–	0.274	0.248	0.3	0.338	0.353
NCI-H1703	0.15	0.103	0.0957	0.115	0.0425	–	–	–	–	–	0.124	0.134	0.156	0.124	0.122	–	–	–	–	–
NCI-H1793	–	–	–	–	–	0.131	0.201	0.188	0.147	0.156	0.225	0.208	0.19	0.149	0.225	0.276	0.193	0.218	0.138	0.166
NCI-H2228	0.169	0.213	0.262	0.141	0.149	0.127	0.158	0.172	–	0.111	0.181	0.132	0.13	0.117	0.123	–	–	–	–	–
NCI-H2342	–	–	–	–	–	0.25	0.232	0.266	0.231	0.25	–	–	–	–	–	0.318	0.306	0.265	0.276	0.25
SW 900	–	–	–	–	–	0.0993	0.114	0.105	0.0942	0.147	–	–	–	–	–	0.21	0.231	0.16	0.201	0.17
